The values below come from patent US20260027104A1, “NOVEL NAPHTHYL AND ISOQUINOLINE SULFONAMIDE DERIVATIVES” (Hoffmann-La Roche Inc., priority 2022, published 2026).

The structures appear in SMILES notation.

human GPR17 short isoform, sequence (Q13304 29-367): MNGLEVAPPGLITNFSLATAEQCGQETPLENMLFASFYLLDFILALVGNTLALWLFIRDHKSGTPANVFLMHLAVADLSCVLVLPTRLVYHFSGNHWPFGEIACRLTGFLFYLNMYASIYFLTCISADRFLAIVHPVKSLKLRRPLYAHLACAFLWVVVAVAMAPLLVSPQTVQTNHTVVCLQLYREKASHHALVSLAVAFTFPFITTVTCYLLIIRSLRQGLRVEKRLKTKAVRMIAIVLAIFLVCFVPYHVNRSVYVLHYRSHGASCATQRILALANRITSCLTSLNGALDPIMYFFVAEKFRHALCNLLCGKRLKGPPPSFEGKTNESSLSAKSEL

The test addresses human GPR17 short isoform (Homo sapiens, UniProt Q13304). In words: hGPR17 cAMP assay (GPR17 cAMP Assay Protocol, antagonist mode). It counts as cell-based. As to conditions: CHO-K1 cells stably expressing untagged human GPR17 short isoform; EC80 of agonist MDL29,951; forskolin 15 μM; 30 min, room temperature; TR-FRET cAMP readout. The method, then: GPR17 cAMP Assay Protocol:
CHO-K1 cells stably expressing vector containing untagged human GPR17 short isoform (Roche) were cultured at 37° C./5% CO2 in DMEM (Dulbecco's Modified Eagle Medium):F-12 (1:1) supplemented with 10% foetal bovine serum and 400 μg/ml Geneticin.
Changes in intracellular cyclic adenosine monophosphate (cAMP) levels were quantified using the Nano-TRF Detection Assay kit (Roche Diagnostics, Cat. No. 05214386001). This assay allows for direct cAMP quantification in a homogeneous solution. cAMP is detected based on time-resolved fluorescence energy transfer (TR-FRET) and competitive binding of ruthenylated cAMP and endogenous cAMP to an anti-cAMP monoclonal antibody labeled with AlexaFluor-700. The Ruthenium complex serves as the FRET donor and transfers energy to AlexaFluor-700. The FRET signal is inversely proportional to the cAMP concentration.
CHO-GPR17S cells were detached with Accutase and resuspended in assay buffer consisting of Hank's Balanced Salt Solution (HBSS), 10 mM HEPES (4-(2-hydroxyethyl) piperazine-1-ethanesulfonic acid solution) and 0.1% bovine serum albumin (pH 7.4). The cells were seeded in black 384-well plates (Corning) at a density of 10′000 cells/20 μl assay buffer until the addition of compounds.
Test antagonist compounds were serially diluted in dimethyl sulfoxide (DMSO) and spotted in 384-well plates. The compounds were then diluted in BSS buffer supplemented with an EC80 concentration of MDL29,951 (3-(2-Carboxy-4,6-dichloroindol-3-yl)propionic acid) (GPR17 agonist) plus 3-Isobutyl-1-methylxanthine (IBMX) (0.5 mM final concentration) and added to the cells at room temperature. Forskolin (15 μM final concentration) was added 5 minutes after the test compounds and the cells were incubated at room temperature for 30 minutes. The assay was stopped by adding cAMP detection mix (containing detergents for cell lysis) for 90 minutes at room temperature.
Cellular cAMP was measured using a Paradigm reader (Molecular Devices). The raw data was used to calculate the FRET signal based on the assay's P-factor as per cAMP kit instructions. The data was normalized to the maximal activity of a reference antagonist and dose response curves were fitted to the percent activity of the test compounds using a sigmoidal dose response model (Genedata Screener).
Results in the hGPR17 cAMP assay are provided for compounds of formula I in Table 1
Usually IC50 stands for the concentration that inhibits the measured activity by half. The low end stands for greater potency, the high end for weaker potency. The compound `COc1nc(C2CC2)c(F)cc1NS(=O)(=O)c1cccc2nc(Cl)ccc12` [Example 4, 2-chloro-N-(6-cyclopropyl-5-fluoro-2-methoxy-3-pyridyl)quinoline-5-sulfonamide] gave an IC50 of 45 nM.

`COc1nc(NS(=O)(=O)c2c[nH]c(=O)c3cc(Cl)ccc23)nc(OC)c1CC(F)F` [Example 24, 7-chloro-N-[5-(2,2-difluoroethyl)-4,6-dimethoxy-pyrimidin-2-yl]-1-keto-2H-isoquinoline-4-sulfonamide] gave an IC50 of 278 nM.

Compound `COc1nc(OCC(F)F)c(F)cc1NS(=O)(=O)c1c[nH]c(=O)c2c(Cl)c(Cl)ccc12` [Example 39, 7,8-dichloro-N-[6-(2,2-difluoroethoxy)-5-fluoro-2-methoxy-3-pyridyl]-1-keto-2H-isoquinoline-4-sulfonamide] yielded an IC50 of 7 nM.

In the case of `COc1nc(OCC(F)F)c(F)cc1NS(=O)(=O)c1cccc2cc(Cl)ccc12` [Example 34, 6-chloro-N-[6-(2,2-difluoroethoxy)-5-fluoro-2-methoxy-3-pyridyl]naphthalene-1-sulfonamide], the 50% inhibitory concentration (IC50) was determined as 48 nM. This IC50 is about 6.9-fold higher than that of the compound before.

`CNc1ncc(S(=O)(=O)Nc2cc(F)c(CC#N)cc2F)c2ccc(Cl)cc12` [Example 44, 7-chloro-N-[4-(cyanomethyl)-2,5-difluoro-phenyl]-1-(methylamino)isoquinoline-4-sulfonamide] showed an IC50 of 315 nM.

`COc1nc(OCC(F)F)c(F)cc1NS(=O)(=O)c1cn(C)c(=O)c2cc(Cl)ccc12` [Example 36, 7-chloro-N-[6-(2,2-difluoroethoxy)-5-fluoro-2-methoxy-3-pyridyl]-1-keto-2-methyl-isoquinoline-4-sulfonamide] registered a concentration for half-maximal inhibition (IC50) of 371 nM.

`O=S(=O)(Nc1cc(F)c(OC(F)F)nc1OC(F)F)c1cccc2nc(Cl)ccc12` [Example 11, N-[2,6-bis(difluoromethoxy)-5-fluoro-3-pyridyl]-2-chloro-quinoline-5-sulfonamide] displayed an IC50 of 111 nM.

For `COc1nc(OCC(F)F)c(F)cc1NS(=O)(=O)c1cccc2c1CCC(C)O2` (stereo not shown) [Example 16, N-[6-(2,2-difluoroethoxy)-5-fluoro-2-methoxy-3-pyridyl]-2-methyl-chromane-5-sulfonamide], the IC50 was 31 nM.

Take `COc1nc(OC(F)F)c(F)cc1NS(=O)(=O)c1cccc2nc(Cl)ccc12` [Example 6, 2-chloro-N-[6-(difluoromethoxy)-5-fluoro-2-methoxy-3-pyridyl]quinoline-5-sulfonamide]: the IC50 is 49 nM.

Take `CNc1cc(S(=O)(=O)Nc2cc(F)c(OCC(F)F)nc2OC)c2ccc(Cl)cc2n1` [Example 45, 7-chloro-N-[6-(2,2-difluoroethoxy)-5-fluoro-2-methoxy-3-pyridyl]-2-(methylamino)quinoline-4-sulfonamide]: the 50% inhibitory concentration (IC50) is 72 nM.

As for `COc1nc(OC(F)F)c(F)cc1NS(=O)(=O)c1ccnc2cc(Cl)ccc12` [Example 48, 7-chloro-N-[6-(difluoromethoxy)-5-fluoro-2-methoxy-3-pyridyl]quinoline-4-sulfonamide], the IC50 amounted to 154 nM.

Take `N#CCc1cc(F)c(NS(=O)(=O)c2cccc3c(Cl)cccc23)cc1F` [Example 17, 5-chloro-N-[4-(cyanomethyl)-2,5-difluoro-phenyl]naphthalene-1-sulfonamide]: the IC50 is 88 nM.

In turn, `COc1nc(OCC(F)F)c(F)cc1NS(=O)(=O)c1c[nH]c(=O)c2nc(Cl)ccc12` [Example 29, 2-chloro-N-[6-(2,2-difluoroethoxy)-5-fluoro-2-methoxy-3-pyridyl]-8-keto-7H-1,7-naphthyridine-5-sulfonamide] displayed an IC50 of 30 nM. Compared with the last compound, the IC50 is about 2.9-fold lower.

On to `CN(C)c1ccc2c(S(=O)(=O)Nc3cc(F)c(CC#N)cc3F)cccc2n1` [Example 32, N-[4-(cyanomethyl)-2,5-difluoro-phenyl]-2-(dimethylamino)quinoline-5-sulfonamide], for which the IC50 stood at 238 nM.

For the compound `Cc1ccc(S(=O)(=O)Nc2cc(F)c(CC#N)cc2F)c2cccnc12` [Example 47, N-[4-(cyanomethyl)-2,5-difluoro-phenyl]-8-methyl-quinoline-5-sulfonamide], the IC50 is 933 nM.

For the compound `COc1nc(NS(=O)(=O)c2cccc3nc(Cl)ccc23)nc(OC)c1CC(F)F` [Example 8, 2-chloro-N-[5-(2,2-difluoroethyl)-4,6-dimethoxy-pyrimidin-2-yl]quinoline-5-sulfonamide], the IC50 was 174 nM.

In turn, `COc1nc(NS(=O)(=O)c2c[nH]c(=O)c3cc(Cl)ccc23)c(F)cc1OCC(F)F` [Example 25, 7-chloro-N-[5-(2,2-difluoroethoxy)-3-fluoro-6-methoxy-2-pyridyl]-1-oxo-2H-isoquinoline-4-sulfonamide] showed an IC50 of 50 nM.

For `COc1nc(OC(F)F)c(F)cc1NS(=O)(=O)c1cncc2cc(Cl)ccc12` [Example 13, 7-chloro-N-[6-(difluoromethoxy)-5-fluoro-2-methoxy-3-pyridyl]isoquinoline-4-sulfonamide], the IC50 was found to be 92 nM.

The compound `COc1nc(OCC(F)F)c(F)cc1NS(=O)(=O)c1cncc2c(C#N)c(Cl)ccc12` [Example 46, 7-chloro-8-cyano-N-[6-(2,2-difluoroethoxy)-5-fluoro-2-methoxy-3-pyridyl]isoquinoline-4-sulfonamide] displayed a half-maximal inhibitory concentration (IC50) of 253 nM.

`COc1nc(OCC(F)F)c(F)cc1NS(=O)(=O)c1cc(=O)[nH]c2cc(Cl)ccc12` [Example 30, 7-chloro-N-[6-(2,2-difluoroethoxy)-5-fluoro-2-methoxy-3-pyridyl]-2-keto-1H-quinoline-4-sulfonamide] gave an IC50 of 35 nM.

In turn, `COc1nc(OCC(F)F)c(F)cc1NS(=O)(=O)c1cccc2c(Cl)cccc12` [Example 18, 5-chloro-N-[6-(2,2-difluoroethoxy)-5-fluoro-2-methoxy-3-pyridyl]naphthalene-1-sulfonamide] gave an IC50 of 43 nM.

As to `N#CCc1cc(F)c(NS(=O)(=O)c2ccnc3cc(Cl)ccc23)cc1F` [Example 53, 7-chloro-N-[4-(cyanomethyl)-2,5-difluoro-phenyl]quinoline-4-sulfonamide], the IC50 stood at 976 nM.

The compound `N#CCc1cc(F)c(NS(=O)(=O)c2cnc(O)c3c(Cl)cccc23)cc1F` [Example 20, 8-chloro-N-[4-(cyanomethyl)-2,5-difluoro-phenyl]-1-hydroxy-isoquinoline-4-sulfonamide] yielded an IC50 of 327 nM. Compared with the last compound, the IC50 is about 3-fold lower.

With `COc1nc(OCC(F)F)c(F)cc1NS(=O)(=O)c1cccc2nc(C)ccc12` [Example 33, N-[6-(2,2-difluoroethoxy)-5-fluoro-2-methoxy-3-pyridyl]-2-methyl-quinoline-5-sulfonamide], the IC50 amounted to 11 nM.

The compound `COc1nc(OCC(F)F)c(F)cc1NS(=O)(=O)c1cncc2nc(Cl)ccc12` [Example 50, 2-chloro-N-[6-(2,2-difluoroethoxy)-5-fluoro-2-methoxy-3-pyridyl]-1,7-naphthyridine-5-sulfonamide] showed an IC50 of 38 nM.

Regarding `N#CCc1cc(F)c(NS(=O)(=O)c2cccc3ccccc23)cc1F` [Example 1, N-(4-(cyanomethyl)-2,5-difluorophenyl)naphthalene-1-sulfonamide], the IC50 worked out at 282 nM. This IC50 lies about 7.4-fold higher than the previous one.

In turn, `COc1nc(NS(=O)(=O)c2c[nH]c(=O)c3cc(Cl)ccc23)ncc1OCCF` [Example 22, 7-chloro-N-[5-(2-fluoroethoxy)-4-methoxy-pyrimidin-2-yl]-1-keto-2H-isoquinoline-4-sulfonamide] yielded an IC50 of 331 nM.

As for `N#CCc1cc(F)c(NS(=O)(=O)c2c[nH]c(=O)c3cc(Cl)ccc23)cc1F` [Example 21, 7-chloro-N-[4-(cyanomethyl)-2,5-difluoro-phenyl]-1-keto-2H-isoquinoline-4-sulfonamide], the IC50 was 174 nM.

The compound `COc1nc(NS(=O)(=O)c2cccc3nc(Cl)ccc23)c(F)cc1OCC(F)F` [Example 9, 2-chloro-N-[5-(2,2-difluoroethoxy)-3-fluoro-6-methoxy-2-pyridyl]quinoline-5-sulfonamide] gave an IC50 of 495 nM.

For the compound `COc1nc(OCC(F)F)c(F)cc1NS(=O)(=O)c1cccc2ccccc12` [Example 2, N-[6-(2,2-difluoroethoxy)-5-fluoro-2-methoxy-3-pyridyl]naphthalene-1-sulfonamide], the 50% inhibitory concentration (IC50) worked out at 85 nM.

`COc1nc(OC(F)F)c(F)cc1NS(=O)(=O)c1c[nH]c(=O)c2cc(Cl)ccc12` [Example 23, 7-chloro-N-[6-(difluoromethoxy)-5-fluoro-2-methoxy-3-pyridyl]-1-keto-2H-isoquinoline-4-sulfonamide] yielded an IC50 of 19 nM.
